The record followed here is patent US11691992B2 (Anacor Pharmaceuticals, Inc., priority 2017, dated 2023).

For orientation: IC50 means the concentration that gives 50% inhibition.

Assay type in all cases: cell-based
In experiment [1] the test system is promastigote forms of L. major. As to the kind of experiment: Leishmania major promastigote growth inhibition assay (Alamar Blue). Conditions: promastigotes, 44 hours + 4 hours Alamar Blue, read-out: IC50: I Org. promastigote Growth L. major, 2 d. From the text:
Example 108. Leishmania major Promastigote Growth Inhibition Assay
The promastigote assay is a microtiter plate drug sensitivity prescreen assay used to determine antileishmanial activity of candidate drugs against promastigote forms of L. major. (Shadow et al., PLOS Neglected Tropical Diseases, 2009, e311.) Alamar Blue, or resazurin, is a non-fluorescent indicator dye that is converted to bright red-fluorescent resorufin via the activity of mitochondrial reductases. As the activity of mitochondrial reductases is reduced in cells that are dead or dying, and the intensity of the fluorescence is relative to cell number, a test compound that kills or inhibits growth of a particular target cell, such as L. major, will result in a lower production of fluorescent signal. Pre-dosed microtiter drug plates for use in the promastigote drug prescreen assay were produced using sterile 384-well black optical bottom tissue culture plates (Nunc Cat #12-565-344). Candidate drugs were diluted in dimethyl sulfoxide in four 96-well plates to either 10,000 ng/ml or 1,000 ng/ml, and 4.25 μL of diluted drug was subsequently dispensed into each well of a 384-well plate. Duplicate 384 well plates were made at each test concentration (10,000 ng/mL and 1,000 ng/mL) and amphotericin B was used as a batch control. The Tecan EVO Freedom liquid handling system (Tecan US, Inc., Durham, N.C.) was used to produce all drug assay plates and conduct all pipetting operations for this assay. L. major parasites were cultured in Schneider's medium (Lonza Cat #04-351Q) supplemented with 20% heat inactivated FBS (Invitrogen Cat #16140-089). Promastigotes in early log growth phase were harvested from culture, counted, suspended at 1.32×10^5 cells/mF and 5,000 promastigotes were dispensed into each well of the 384 well plate in a volume of 38.8 μL. The 384 well plates were subsequently incubated at 28° C. for 44 hours. 8.4 μF of Alamar Blue (Promega, Cat #G8081) was added to each well, the plates were subsequently incubated at 28° C. and 5% CO2 for 4 hours and then examined for the relative fluorescence units (RFU) per well using the Tecan Genios Plus (Tecan US, Inc., Durham, N.C.) with excitation set at 560 nm and emission set at 590 nm. The relative fluorescence from each well was used to determine the percent growth inhibition of each candidate compound tested. Compounds with 50% or greater inhibition of growth were selected for further analysis to determine IC50 values.
Background: Alamar Blue is a resazurin reagent that responds to reducing activity.

For experiment [2], the system named is TdTomato-modified T. cruzi (CL strain) in Vero cells. As to the kind of experiment: In vitro IC50 measurement of T. cruzi amastigote killing using TdTomato-modified T. cruzi (CL strain). Conditions: Trypanosoma cruzi, 72 h, fluorescence, read-out: IC50: I Org. amastigote Growth T. cruzi CL TdTomato, 3 d. Here is the method:
Example 112. In Vitro IC50 Measurement of T. cruzi Amastigote Killing Using TdTomato-Modified T. cruzi (CL Strain)
The T. cruzi parasites used in this assay were genetically modified to express Td Tomato fluorescent protein. Vero cells (African green monkey kidney epithelial cells) were harvested from continuous cultures using trypsin and added to the inner 60 wells of 96-well Greiner Bio One plates (plate catalog #655090) at 200 ul/well of […]. Cells were allowed to adhere for 1 h before infection with T. cruzi. T. cruzi for infection were harvested from previously-infected Vero cells, washed, pelleted and resuspended at 5×10^6/mL. 50 uL of parasites were added to each well containing Vero cells. Compounds were prepared from 5 mM stock concentrations in DMSO to final concentrations in wells ranging from 5 uM to 5 nM. Wells were provided for negative controls, lacking compounds. Plates were placed into a 37° C. incubator for 20 min, then a “Day 0” reading was taken on a Synergy H4 plate reader to record initial fluorescence levels, at 544 (excitation) and 612 nm (emission). 96-well plates were placed in Tupperware containers with wet paper towels and incubated at 37° C. incubator for 72 h. After 72 h plates were reread (Day 3 reading) and data analyzed using Excel and/or Graphpad software. Day 0 fluorescence was subtracted from Day 3 to remove input parasite fluorescence. Growth curves are generated and 50% and 90% inhibitory concentrations are determined by nonlinear regression analysis.

For experiment [3], the system named is luciferase-expressing L. major parasites developing intracellularly inside RAW 264.7 macrophages. As to the kind of experiment: Leishmania major intracellular amastigote assay in RAW 264.7 macrophages (luciferase). Conditions: RAW264.7, 96 hours, read-out: IC50: I Org. intracellular amastigote Growth L. major, 4 d. The source says: Example 107. Assay for Leishmania major Intracellular Amastigote Assay in RAW 264.7 Macrophages
The intracellular amastigote assay is a microtiter plate drug sensitivity assay that uses the activity of luciferase as a measure of proliferation of luciferase-expressing L. major parasites developing intracellularly inside RAW 264.7 macrophages in the presence of antileishmanial drugs or experimental compounds. (Buckner, F. S., and A. J. Wilson. Am J Prop Med Hyg, 2005, 72(5): 600-605.) As the activity of luciferase and its associated luminescence after addition of the substrate, luciferin, is relative to parasite growth, a test compound that inhibits the growth of the parasite will result in a lower luminescence. The luciferase-expressing L. major parasite used in this assay is genetically modified by adding the luciferase coding region to the pLEXSY-hyg2 vector (Jena Biosciences). The luciferase expression construct was created by digesting the luciferase coding region (1.66 kbp) of pGL3-Basic (Promega) by using two restriction enzymes, NcoI/EagI, followed by electrophoretic separation of the luciferase coding region on a 1% agarose gel. The luciferase coding region was then ligated into pLEXSY-hyg2 vector (Jena Biosciences) which had previously been digested with NcoI/NotI. The vector was linearized with SwaI and subsequently gel purified prior to transfection into L. major parasites. Transfections were carried out by electroporation at 480V, 13Ω, and 500 μF (0.4 mL of 1×10^8 parasites/mL, and 0.1 mL of 10 μg DNA). Selection for transfectants was then carried out using hygromycin B (100 μg/mL). RAW 264.7 macrophages were cultured in DMEM media (ATCC Cat #30-2002) supplemented with heat-inactivated 10% FBS (Invitrogen Cat #10438-034). To begin the assay, macrophages were harvested from culture by removing all spent media, adding in 10 mL fresh media, scraping cells, and counted using Trypan Blue. The cells were resuspended in DMEM/10% HIFBS media at 2.0×10^5 cells/mL, and then dispensed in a volume of 50 μL to yield a final concentration of 10,000 macrophages/well in 384 well tissue-culture treated sterile white plates (Nunc Cat #12-565-343) using a Tecan EVO Freedom robotics system. The plates were then incubated at 37° C. overnight in 5% CO2 atmosphere for 24 hours. After overnight incubation, the media was removed from each well using the Tecan EVO Freedom robot, and L. major promastigotes were added to each well and allowed to invade the RAW macrophages. Promastigotes were cultured in Schneider's medium (Invitrogen Cat #11720-067) supplemented with 20% heat inactivated FBS. Metacyclic stage promastigotes provide the best invasion for this assay, and cultures should be grown to increase the percentage of metacyclic promastigotes for best results. Promastigotes were harvested from culture, counted, suspended at 2×10^6 promastigotes/mL in DMEM/HIFBS media, and 100,000 promastigotes were dispensed per well in a volume of 50 μL. After overnight incubation, the media was removed from each well using the Tecan Freedom EVO robot, and each well was subsequently washed three times with 40 μF of fresh DMEM/HIFBS medium to remove all extracellular promastigotes. After the third wash, 69.2 μF of DMEM/HIFBS medium was added to each well using the Tecan EVO Freedom robot. Drug plates were prepared with the Tecan EVO Freedom using sterile 96 well plates containing twelve duplicate two-fold serial dilutions of each test compound suspended in DMSO. 7.8 μF of diluted test compound was added to the 69.2 μF of media present in each well providing a 10 fold final dilution of compound. The final concentration range tested was 0.5 to 10,000 ng/ml for all assays. The plates were next incubated at 37° C. and 5% CO2 for 96 hours. After 96 hours of incubation, 7.5 μF of a luciferin solution (Caliper Fife Science) diluted to 150 μg/mF was added to each well, and the plates were incubated for 30 minutes at 37° C., in the dark. […]

As to `Cc1c(C(=O)Nc2ccc3c(c2)B(O)OC32CCC2)nnn1-c1ccccn1` [Example 27, N-(1-hydroxy-1H-spiro[benzo[c][1,2]oxaborole-3,1′-cyclobutan]-6-yl)-5-methyl-1-(pyridin-2-yl)-1H-1,2,3-triazole-4-carboxamide], the IC50 in experiment [1] was 0.6 to 2.5 µM; in experiment [2], under 0.6 µM; in experiment [3], 1.1 to 9.9 µM.
